Data as given in ChEMBL document CHEMBL1201861, “Genomics of Drug Sensitity in Cancer screening data, Wellcome Trust Sanger Institute”.
“And” between values parts separate entries of the source, which are not always exact repeats. Identical values can stand only once.

Experiments:
Experiment in all cases: cells
NCI-H2122 = assay type: functional, cell-based, Homo sapiens;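 note: growth inhibition of the cells, read out with a cell viability assay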
Description: SANGER: Inhibition of human NCI-H2122 cell growth in a cell viability assay.

MMAC-SF = assay type: functional, cell-based, Homo sapiens;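 note: growth inhibition of human MMAC-SF cells, read out with a cell viability assay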
Description: SANGER: Inhibition of human MMAC-SF cell growth in a cell viability assay.

MHH-ES-1 = assay type: functional, cell-based, Homo sapiens;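 note: cell growth inhibition measured by a cell viability assay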
Description: SANGER: Inhibition of human MHH-ES-1 cell growth in a cell viability assay.

RMG-I = assay type: functional, cell-based, Homo sapiens;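 note: growth inhibition of human RMG-I cells, read out with a cell viability assay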
Description: SANGER: Inhibition of human RMG-I cell growth in a cell viability assay.

D-502MG = assay type: functional, cell-based, Homo sapiens
Description: SANGER: Inhibition of human D-502MG cell growth in a cell viability assay.

GCT = assay type: functional, cell-based, Homo sapiens;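 note: GCT cell line proliferation inhibition, read out with a cell viability assay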
Description: SANGER: Inhibition of human GCT cell growth in a cell viability assay.

HCC1954 = assay type: functional, cell-based, Homo sapiens;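 note: growth inhibition of human HCC1954 cells, read out with a cell viability assay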
Description: SANGER: Inhibition of human HCC1954 cell growth in a cell viability assay.

IST-SL1 = assay type: functional, cell-based, Homo sapiens;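 note: growth inhibition of human IST-SL1 cells, read out with a cell viability assay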
Description: SANGER: Inhibition of human IST-SL1 cell growth in a cell viability assay.

A4-Fuk = assay type: functional, cell-based; conditions: Homo sapiens;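 note: growth inhibition of A4-Fuk cells, read out by a cell viability assay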
Description: SANGER: Inhibition of human A4-Fuk cell growth in a cell viability assay.

UACC-62 = assay type: functional, cell-based, Homo sapiens;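 note: growth inhibition of human UACC-62 cells, read out by a cell viability assay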
Description: SANGER: Inhibition of human UACC-62 cell growth in a cell viability assay.

KOSC-2 = assay type: functional, cell-based, Homo sapiens;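 note: growth inhibition of KOSC-2 cells, read out by a cell viability assay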
Description: SANGER: Inhibition of human KOSC-2 cell growth in a cell viability assay.

KALS-1 = assay type: functional, cell-based, Homo sapiens;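 note: growth inhibition of KALS-1 cells, determined with a cell viability assay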
Description: SANGER: Inhibition of human KALS-1 cell growth in a cell viability assay.

SAOS-2 = assay type: functional, cell-based, Homo sapiens;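 note: growth inhibition of human Saos-2 cells determined by a cell viability assay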
Description: SANGER: Inhibition of human Saos-2 cell growth in a cell viability assay.

MDA-MB-453 = assay type: functional, cell-based, Homo sapiens
Description: SANGER: Inhibition of human MDA-MB-453 cell growth in a cell viability assay.

P12-Ichikawa = assay type: functional, cell-based; conditions: Homo sapiens
M14 = assay type: functional, cell-based, Homo sapiens;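 note: growth inhibition of M14 cells, read out with a cell viability assay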
Description: SANGER: Inhibition of human M14 cell growth in a cell viability assay.

BHY = assay type: functional, cell-based, Homo sapiens;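 note: cell growth inhibition read out by a viability assay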
Description: SANGER: Inhibition of human BHY cell growth in a cell viability assay.

CaR-1 = assay type: functional, cell-based, Homo sapiens;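 note: growth inhibition of human CaR-1 cancer cells, read out with a cell viability assay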
Description: SANGER: Inhibition of human CaR-1 cell growth in a cell viability assay.

OAW-28 = assay type: functional, cell-based, Homo sapiens;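 note: growth inhibition of OAW-28 cells, read out with a cell viability assay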
Description: SANGER: Inhibition of human OAW-28 cell growth in a cell viability assay.

HCC1806 = assay type: functional, cell-based, Homo sapiens;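 note: growth inhibition of the cancer cell line, determined with a cell viability assay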
Description: SANGER: Inhibition of human HCC1806 cell growth in a cell viability assay.

KYSE-180 = assay type: functional, cell-based, Homo sapiens;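 note: growth inhibition of KYSE-180 cells, read out with a cell viability assay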
Description: SANGER: Inhibition of human KYSE-180 cell growth in a cell viability assay.

NCI-H1355 = assay type: functional, cell-based, Homo sapiens;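 note: growth inhibition of human NCI-H1355 cells, read out by a cell viability assay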
Description: SANGER: Inhibition of human NCI-H1355 cell growth in a cell viability assay.

SW756 = assay type: functional, cell-based, Homo sapiens;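 note: growth inhibition of human SW756 cells, read out with a cell viability assay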
Description: SANGER: Inhibition of human SW756 cell growth in a cell viability assay.

DEL = assay type: functional, cell-based; conditions: Homo sapiens;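 note: growth inhibition of the human DEL cell line, read out with a cell viability assay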
Description: SANGER: Inhibition of human DEL cell growth in a cell viability assay.

RS4-11 = assay type: functional, cell-based; conditions: Homo sapiens;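 note: growth inhibition of RS4-11 cells, read out by a cell viability assay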
Description: SANGER: Inhibition of human RS4-11 cell growth in a cell viability assay.

RO82-W-1 = assay type: functional, cell-based, Homo sapiens;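 note: growth inhibition of human RO82-W-1 cells, measured with a cell viability assay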
Description: SANGER: Inhibition of human RO82-W-1 cell growth in a cell viability assay.

BPH-1 = assay type: functional, cell-based, Homo sapiens;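 note: cell viability assay measuring growth inhibition of human BPH-1 cells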
Description: SANGER: Inhibition of human BPH-1 cell growth in a cell viability assay.

MFM-223 = assay type: functional, cell-based, Homo sapiens
Description: SANGER: Inhibition of human MFM-223 cell growth in a cell viability assay.

SBC-1 = assay type: functional, cell-based; conditions: Homo sapiens;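 note: cell viability assay measuring growth inhibition of the SBC-1 cell line, IC50 being the concentration that halves growth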
Description: SANGER: Inhibition of human SBC-1 cell growth in a cell viability assay.

NB17 = assay type: functional, cell-based; conditions: Homo sapiens;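 note: growth inhibition of NB17 cells, read out with a cell viability assay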
Description: SANGER: Inhibition of human NB17 cell growth in a cell viability assay.

CAKI-1 = assay type: functional, cell-based, Homo sapiens;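 note: growth inhibition of CAKI-1 cells, measured by a cell viability assay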
Description: SANGER: Inhibition of human CAKI-1 cell growth in a cell viability assay.

SK-UT-1 = assay type: functional, cell-based, Homo sapiens;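 note: growth inhibition of SK-UT-1 cells, measured by a cell viability assay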
Description: SANGER: Inhibition of human SK-UT-1 cell growth in a cell viability assay.

GT3TKB = assay type: functional, cell-based, Homo sapiens;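 note: growth inhibition of the cell line, read out with a cell viability assay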
Description: SANGER: Inhibition of human GT3TKB cell growth in a cell viability assay.

MS-1 = assay type: functional, cell-based; conditions: Homo sapiens;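 note: growth inhibition of MS-1 cells, read out by cell viability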
Description: SANGER: Inhibition of human MS-1 cell growth in a cell viability assay.

COR-L23 = assay type: functional, cell-based, Homo sapiens;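 note: cell viability assay measuring how strongly compounds suppress growth of COR-L23 cells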
Description: SANGER: Inhibition of human COR-L23 cell growth in a cell viability assay.

SAS = assay type: functional, cell-based, Homo sapiens;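 note: growth inhibition of SAS cells, read out with a cell viability assay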
Description: SANGER: Inhibition of human SAS cell growth in a cell viability assay.

Huh-7 = assay type: functional, cell-based, Homo sapiens;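 note: HuH-7 cell growth inhibition, read out with a cell viability assay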
Description: SANGER: Inhibition of human HuH-7 cell growth in a cell viability assay.

IST-MEL1 = assay type: functional, cell-based, Homo sapiens;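 note: growth inhibition of the cell line, read out with a cell viability assay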
Description: SANGER: Inhibition of human IST-MEL1 cell growth in a cell viability assay.

NCI-H1304 = assay type: functional, cell-based; conditions: Homo sapiens;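 note: growth inhibition of the cancer cell line, measured in a cell viability assay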
Description: SANGER: Inhibition of human NCI-H1304 cell growth in a cell viability assay.

ME-180 = assay type: functional, cell-based; conditions: Homo sapiens;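 note: cell viability assay measuring growth inhibition of ME-180 cells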
Description: SANGER: Inhibition of human ME-180 cell growth in a cell viability assay.

FaDu = assay type: functional, cell-based, Homo sapiens;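 note: cell viability readout of growth inhibition in FaDu cells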
Description: SANGER: Inhibition of human FADU cell growth in a cell viability assay.

RPMI-8866 = assay type: functional, cell-based; conditions: Homo sapiens
Description: SANGER: Inhibition of human RPMI-8866 cell growth in a cell viability assay.

NUGC-3 = assay type: functional, cell-based, Homo sapiens;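 note: growth inhibition of human NUGC-3 cells, read out with a cell viability assay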
Description: SANGER: Inhibition of human NUGC-3 cell growth in a cell viability assay.

SK-OV-3 = assay type: functional, cell-based, Homo sapiens;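 note: growth inhibition of SK-OV-3 human cells, read out with a cell viability assay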
Description: SANGER: Inhibition of human SK-OV-3 cell growth in a cell viability assay.

DMS-273 = assay type: functional, cell-based, Homo sapiens
Description: SANGER: Inhibition of human DMS-273 cell growth in a cell viability assay.

BCPAP = assay type: functional, cell-based, Homo sapiens;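 note: growth inhibition of BCPAP cells, read out in a cell viability assay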
Description: SANGER: Inhibition of human BCPAP cell growth in a cell viability assay.

EW-1 = assay type: functional, cell-based, Homo sapiens;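 note: growth inhibition of the human EW-1 cell line, read out by a cell viability assay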
Description: SANGER: Inhibition of human EW-1 cell growth in a cell viability assay.

VA-ES-BJ = assay type: functional, cell-based, Homo sapiens;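 note: growth inhibition of the VA-ES-BJ cell line, read out by a cell viability assay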
Description: SANGER: Inhibition of human VA-ES-BJ cell growth in a cell viability assay.

A101D = assay type: functional, cell-based, Homo sapiens;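 note: growth inhibition of the cell line, measured with a viability assay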
Description: SANGER: Inhibition of human A101D cell growth in a cell viability assay.

A498 = assay type: functional, cell-based, Homo sapiens;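 note: growth inhibition of human A498 cells, read out with a cell viability assay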
Description: SANGER: Inhibition of human A498 cell growth in a cell viability assay.

TE-11 = assay type: functional, cell-based, Homo sapiens;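 note: growth inhibition of human TE-11 cells, read out by a cell viability assay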
Description: SANGER: Inhibition of human TE-11 cell growth in a cell viability assay.

Nc1ccn([C@@H]2O[C@H](CO)[C@@H](O)[C@@H]2O)c(=O)n1 [CYTARABINE]
IC50 (NCI-H2122; Homo sapiens, NCI-H2122): 0.43 µM | IC50 (MMAC-SF; Homo sapiens, MMAC-SF): > 2 µM | IC50 (MHH-ES-1; Homo sapiens, MHH-ES-1): 0.323 µM | IC50 (RMG-I; Homo sapiens, RMG-I): > 2 µM | IC50 (D-502MG; Homo sapiens, D-502MG): > 2 µM | IC50 (GCT; Homo sapiens, GCT): 0.856 µM | IC50 (HCC1954; Homo sapiens, HCC1954): > 2 µM | IC50 (IST-SL1; Homo sapiens, IST-SL1): > 2 µM | IC50 (A4-Fuk): 1.17 µM | IC50 (UACC-62; Homo sapiens, UACC-62): 0.666 µM | IC50 (KOSC-2; Homo sapiens, KOSC-2): 0.643 µM | IC50 (KALS-1; Homo sapiens, KALS-1): > 2 µM | IC50 (SAOS-2; Homo sapiens, SAOS-2): 0.682 µM | IC50 (MDA-MB-453; Homo sapiens, MDA-MB-453): > 2 µM | IC50 (P12-Ichikawa): 0.00554 µM | IC50 (M14; Homo sapiens, M14): 0.632 µM | IC50 (BHY; Homo sapiens, BHY): 0.898 µM | IC50 (CaR-1; Homo sapiens, CaR-1): > 2 µM | IC50 (OAW-28; Homo sapiens, OAW-28): > 2 µM | IC50 (HCC1806; Homo sapiens, HCC1806): 0.191 µM | IC50 (KYSE-180; Homo sapiens, KYSE-180): 0.565 µM | IC50 (NCI-H1355; Homo sapiens, NCI-H1355): 0.556 µM | IC50 (SW756; Homo sapiens, SW756): 0.719 µM | IC50 (DEL): 0.875 µM | IC50 (RS4-11): 0.381 µM | IC50 (RO82-W-1; Homo sapiens, RO82-W-1): > 2 µM | IC50 (BPH-1; Homo sapiens, BPH-1): > 2 µM | IC50 (MFM-223; Homo sapiens, MFM-223): > 2 µM | IC50 (SBC-1): > 2 µM | IC50 (NB17): > 2 µM | IC50 (CAKI-1; Homo sapiens, CAKI-1): 0.12 µM | IC50 (SK-UT-1; Homo sapiens, SK-UT-1): 0.181 µM | IC50 (GT3TKB; Homo sapiens, GT3TKB): 0.341 µM | IC50 (MS-1): > 2 µM | IC50 (COR-L23; Homo sapiens, COR-L23): 0.797 µM | IC50 (SAS; Homo sapiens, SAS): 0.108 µM | IC50 (Huh-7; Homo sapiens, Huh-7): > 2 µM | IC50 (IST-MEL1; Homo sapiens, IST-MEL1): 0.381 µM | IC50 (NCI-H1304): > 2 µM | IC50 (ME-180): > 2 µM | IC50 (FaDu; Homo sapiens, FaDu): > 2 µM | IC50 (RPMI-8866): 0.74 µM | IC50 (NUGC-3; Homo sapiens, NUGC-3): 0.589 µM | IC50 (SK-OV-3; Homo sapiens, SK-OV-3): > 2 µM | IC50 (DMS-273; Homo sapiens, DMS-273): 1.46 µM | IC50 (BCPAP; Homo sapiens, BCPAP): 0.501 µM | IC50 (EW-1; Homo sapiens, EW-1): 0.139 µM | IC50 (VA-ES-BJ; Homo sapiens, VA-ES-BJ): 0.0717 µM | IC50 (A101D; Homo sapiens, A101D): > 2 µM | IC50 (A498; Homo sapiens, A498): > 2 µM | IC50 (TE-11; Homo sapiens, TE-11): > 2 µM

Cc1cc([C@@H](C)Nc2ccccc2C(=O)O)c2nc(N3CCOCC3)cc(=O)n2c1 [AZD-6482]
IC50 (NCI-H2122; nci-h2122): > 5.12 µM | IC50 (MMAC-SF; mmac-sf): > 5.12 µM | IC50 (MHH-ES-1; mhh-es-1): > 5.12 µM | IC50 (RMG-I; rmg-i): > 5.12 µM | IC50 (D-502MG; d-502mg): > 5.12 µM | IC50 (GCT; gct): > 5.12 µM | IC50 (HCC1954; Homo sapiens, HCC1954): 5.06 µM | IC50 (HCC1954; hcc1954): > 5.12 µM | IC50 (IST-SL1; ist-sl1): > 5.12 µM | IC50 (A4-Fuk): 3.08 µM | IC50 (UACC-62; uacc-62): > 5.12 µM and 2.03 µM | IC50 (KOSC-2; kosc-2): > 5.12 µM | IC50 (KALS-1; Homo sapiens, KALS-1): 4.35 µM | IC50 (KALS-1; kals-1): > 5.12 µM | IC50 (SAOS-2; Homo sapiens, SAOS-2): > 5.12 µM | IC50 (SAOS-2; saos-2): > 5.12 µM | IC50 (MDA-MB-453; mda-mb-453): > 5.12 µM and 2.33 µM | IC50 (P12-Ichikawa): > 5.12 µM | IC50 (M14; m14): > 5.12 µM | IC50 (BHY; bhy): > 5.12 µM | IC50 (CaR-1; car-1): > 5.12 µM | IC50 (OAW-28; Homo sapiens, OAW-28): > 5.12 µM | IC50 (OAW-28; oaw-28): > 5.12 µM | IC50 (HCC1806; hcc1806): > 5.12 µM | IC50 (KYSE-180; kyse-180): > 5.12 µM | IC50 (NCI-H1355; Homo sapiens, NCI-H1355): > 5.12 µM | IC50 (NCI-H1355; nci-h1355): > 5.12 µM | IC50 (SW756; Homo sapiens, SW756): > 5.12 µM | IC50 (SW756; sw756): > 5.12 µM | IC50 (DEL): > 5.12 µM | IC50 (RS4-11): 0.738 µM | IC50 (RO82-W-1; ro82-w-1): > 5.12 µM | IC50 (BPH-1; Homo sapiens, BPH-1): 4.9 µM | IC50 (BPH-1; bph-1): 4.3 µM | IC50 (MFM-223; mfm-223): > 5.12 µM | IC50 (SBC-1): > 5.12 µM | IC50 (NB17): > 5.12 µM | IC50 (CAKI-1; Homo sapiens, CAKI-1): 3.17 µM | IC50 (CAKI-1; caki-1): 4.71 µM | IC50 (SK-UT-1; sk-ut-1): 2.45 µM and > 5.12 µM | IC50 (GT3TKB; gt3tkb): > 5.12 µM | IC50 (MS-1): > 5.12 µM | IC50 (COR-L23; cor-l23): > 5.12 µM | IC50 (SAS; sas): > 5.12 µM | IC50 (Huh-7; Homo sapiens, Huh-7): > 5.12 µM | IC50 (Huh-7; huh-7): > 5.12 µM | IC50 (IST-MEL1; ist-mel1): 2.52 µM and > 5.12 µM | IC50 (NCI-H1304): > 5.12 µM | IC50 (ME-180): > 5.12 µM | IC50 (FaDu; Homo sapiens, FaDu): > 5.12 µM | IC50 (FaDu; fadu): > 5.12 µM | IC50 (RPMI-8866): > 5.12 µM | IC50 (NUGC-3; nugc-3): > 5.12 µM | IC50 (SK-OV-3; sk-ov-3): 1.2 µM and 4.67 µM | IC50 (DMS-273; Homo sapiens, DMS-273): 4.83 µM | IC50 (DMS-273; dms-273): 2.48 µM | IC50 (BCPAP; Homo sapiens, BCPAP): > 5.12 µM | IC50 (BCPAP; bcpap): > 5.12 µM | IC50 (EW-1; ew-1): > 5.12 µM | IC50 (VA-ES-BJ; Homo sapiens, VA-ES-BJ): > 5.12 µM | IC50 (VA-ES-BJ; va-es-bj): > 5.12 µM | IC50 (A101D; a101d): 3.21 µM and > 5.12 µM | IC50 (A498; a498): 0.118 µM and 0.459 µM | IC50 (TE-11; te-11): > 5.12 µM
